From the supplement of paper PMC11208160 come the findings set out here.
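Further: IS621 bridge recombinase in Escherichia coli cells against a fixed T5 target plasmid.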

The series in a line: recombinant UMI read abundance after kanamycin selection (control-corrected) (log10(CPM+1)); higher = more efficient recombination; extreme values may be limits of the assay; sequences stand for … in AGTGCAGAGAAAATCGGCCAGTTTTCTCTGCCTGCAGTCCGCATGCCGTGGGACCCCTTGGGTTCTAACCTGTTGCCTAGATTTATGCAGCGGACTGCCTTTCTCCCAAAGTGATAAACCGG…AGGTTGGTTTCACT; site = the 11-nt donor. Put shortly:
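After plating on IPTG (0.07 mM) plus kanamycin, or unselected, in two replicates, recombinant UMIs were PCR-amplified across the donor–target junction and sequenced. The cells were Escherichia coli co-electroporated with a UMI-tagged donor and donor-binding-loop pair library and a target plasmid with a fixed target and T7-inducible IS621 bridge recombinase. Values are log10(CPM+1), with CPM averaged over replicates and scaled by control-derived factors.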
In the case of “TGTTCACCATGGACCGGTTTTCCCGGTAATCCGTATTTGAC (site TGTCCACCTGT)”, the “recombinant UMI read abundance (log10)” value stood at 0.

Turning to “TGTTCACCATGGACCGGTTTTCCCGGTAATCCGTATTTGAC (site TGTGCACCTGT)”, the “recombinant UMI read abundance (log10)” value stood at 0.

On to “TGTTCACCATGGACCGGTTTTCCCGGTAATCCGTATTTGAC (site TGTTCACCTGT)”, for which the “recombinant UMI read abundance (log10)” value turned out to be 0.

Consider “TGTTCCCCATGGACCGGTTTTCCCGGTAATCCGTATTTGTG (site TGTTCCCCTAA)”, for which the “recombinant UMI read abundance (log10)” value was found to be 0.00613.

On to “TGTTCCCCATGGACCGGTTTTCCCGGTAATCCGTATTTGTG (site TGTTCCCCTCA)”, for which the “recombinant UMI read abundance (log10)” value stood at 0.0316.

For the sequence “TGTTCCCCATGGACCGGTTTTCCCGGTAATCCGTATTTGTG (site TGTTCCCCTGA)”, the “recombinant UMI read abundance (log10)” value was 0.

With “TGTTCCCCATGGACCGGTTTTCCCGGTAATCCGTATTTGTG (site TGTTCCCCTTA)”, the “recombinant UMI read abundance (log10)” value amounted to 0.

With “TGTTCCCCATGGACCGGTTTTCCCGGTAATCCGTATTTGTT (site TGTTCCCCTAA)”, the “recombinant UMI read abundance (log10)” value worked out at 0.014.

As to “TGTTCCCCATGGACCGGTTTTCCCGGTAATCCGTATTTGTT (site TGTTCCCCTCA)”, the “recombinant UMI read abundance (log10)” value was 0.0148.

On to “TGTTCCCCATGGACCGGTTTTCCCGGTAATCCGTATTTGTT (site TGTTCCCCTGA)”, for which the “recombinant UMI read abundance (log10)” value came to 0.

As to “TGTTCCCCATGGACCGGTTTTCCCGGTAATCCGTATTTGTT (site TGTTCCCCTTA)”, the “recombinant UMI read abundance (log10)” value came out at 0.0133.

Turning to “TGTTCCGCATGGACCGGTTTTCCCGGTAATCCGTATTTGTA (site TGTTCCACTTA)”, the “recombinant UMI read abundance (log10)” value was found to be 0.00713.

In the case of “TGTTCCGCATGGACCGGTTTTCCCGGTAATCCGTATTTGTA (site TGTTCCCCTTA)”, the “recombinant UMI read abundance (log10)” value was found to be 0.0203.

“TGTTCCGCATGGACCGGTTTTCCCGGTAATCCGTATTTGTA (site TGTTCCGCTTA)”: the “recombinant UMI read abundance (log10)” value turned out to be 0.0982.

Regarding “TGTTCCGCATGGACCGGTTTTCCCGGTAATCCGTATTTGTA (site TGTTCCTCTTA)”, the “recombinant UMI read abundance (log10)” value is 0.

Regarding “TGTTCTCCATGGACCGGTTTTCCCGGTAATCCGTATTTGTA (site TGTTCACCTTA)”, the “recombinant UMI read abundance (log10)” value turned out to be 0.0104.

Turning to “TGTTCTCCATGGACCGGTTTTCCCGGTAATCCGTATTTGTA (site TGTTCCCCTTA)”, the “recombinant UMI read abundance (log10)” value is 0.00777.

Turning to “TGTTCTCCATGGACCGGTTTTCCCGGTAATCCGTATTTGTA (site TGTTCGCCTTA)”, the “recombinant UMI read abundance (log10)” value was 0.0191.

“TGTTCTCCATGGACCGGTTTTCCCGGTAATCCGTATTTGTA (site TGTTCTCCTTA)”: the “recombinant UMI read abundance (log10)” value came out at 0.679.

Regarding “TGTTGGACATGGACCGGTTTTCCCGGTAATCCGTATTTGTG (site TGTTGGACTCA)”, the “recombinant UMI read abundance (log10)” value was found to be 0.117.

“TGTTGTGCATGGACCGGTTTTCCCGGTAATCCGTATTTGCG (site TGTTGTGCTCG)”: the “recombinant UMI read abundance (log10)” value was 0.684.

For the sequence “TTAAGAGCATGGACCGGTTTTCCCGGTAATCCGTATTTGCA (site TTAAGAGCTTG)”, the “recombinant UMI read abundance (log10)” value amounted to 2.63.

Regarding “TTAAGGCCATGGACCGGTTTTCCCGGTAATCCGTATTTGAC (site ATAAGGCCTGT)”, the “recombinant UMI read abundance (log10)” value turned out to be 0.

Take “TTAAGGCCATGGACCGGTTTTCCCGGTAATCCGTATTTGAC (site CTAAGGCCTGT)”: the “recombinant UMI read abundance (log10)” value is 0.

Consider “TTAAGGCCATGGACCGGTTTTCCCGGTAATCCGTATTTGAC (site GTAAGGCCTGT)”, for which the “recombinant UMI read abundance (log10)” value was 0.

“TTAAGGCCATGGACCGGTTTTCCCGGTAATCCGTATTTGAC (site TTAAGGCCTGT)”: the “recombinant UMI read abundance (log10)” value is 0.

For the sequence “TTAAGTCCATGGACCGGTTTTCCCGGTAATCCGTATTTGTA (site TAAAGTCCTTA)”, the “recombinant UMI read abundance (log10)” value amounted to 0.00903.

As for “TTAAGTCCATGGACCGGTTTTCCCGGTAATCCGTATTTGTA (site TCAAGTCCTTA)”, the “recombinant UMI read abundance (log10)” value is 0.361.

With “TTAAGTCCATGGACCGGTTTTCCCGGTAATCCGTATTTGTA (site TGAAGTCCTTA)”, the “recombinant UMI read abundance (log10)” value came to 0.0153.

“TTAAGTCCATGGACCGGTTTTCCCGGTAATCCGTATTTGTA (site TTAAGTCCTTA)”: the “recombinant UMI read abundance (log10)” value is 1.44.

As to “TTAATAGCATGGACCGGTTTTCCCGGTAATCCGTATTTGAT (site TTAATAGCTAT)”, the “recombinant UMI read abundance (log10)” value is 1.76.

For the sequence “TTAATTCCATGGACCGGTTTTCCCGGTAATCCGTATTTGTG (site TTAATTCCTCA)”, the “recombinant UMI read abundance (log10)” value came out at 0.4.

In the case of “TTACAACCATGGACCGGTTTTCCCGGTAATCCGTATTTGCA (site TTACAACCTTG)”, the “recombinant UMI read abundance (log10)” value stood at 0.

Regarding “TTACACTCATGGACCGGTTTTCCCGGTAATCCGTATTTGAT (site TTACACTCTAT)”, the “recombinant UMI read abundance (log10)” value was 2.95.

As to “TTACAGACATGGACCGGTTTTCCCGGTAATCCGTATTTGAG (site TTACAGACTCT)”, the “recombinant UMI read abundance (log10)” value was determined as 1.21.

Turning to “TTACGAACATGGACCGGTTTTCCCGGTAATCCGTATTTGAC (site TTACGAACTGT)”, the “recombinant UMI read abundance (log10)” value came to 2.28.

In the case of “TTACTAACATGGACCGGTTTTCCCGGTAATCCGTATTTGGA (site ATACTAACTTC)”, the “recombinant UMI read abundance (log10)” value was determined as 0.0425.

As for “TTACTAACATGGACCGGTTTTCCCGGTAATCCGTATTTGGA (site CTACTAACTTC)”, the “recombinant UMI read abundance (log10)” value turned out to be 0.457.

In the case of “TTACTAACATGGACCGGTTTTCCCGGTAATCCGTATTTGGA (site GTACTAACTTC)”, the “recombinant UMI read abundance (log10)” value worked out at 0.288.

Take “TTACTAACATGGACCGGTTTTCCCGGTAATCCGTATTTGGA (site TTACTAACTTC)”: the “recombinant UMI read abundance (log10)” value stood at 0.363.

On to “TTAGAATCATGGACCGGTTTTCCCGGTAATCCGTATTTGAC (site CTAGTATCTGT)”, for which the “recombinant UMI read abundance (log10)” value is 0.

As to “TTAGAATCATGGACCGGTTTTCCCGGTAATCCGTATTTGAC (site TTAGAATCTGT)”, the “recombinant UMI read abundance (log10)” value amounted to 1.48.

For “TTAGCTACATGGACCGGTTTTCCCGGTAATCCGTATTTGTG (site TTAGCTACTCA)”, the “recombinant UMI read abundance (log10)” value turned out to be 0.319.

For the sequence “TTAGCTACATGGACCGGTTTTCCCGGTAATCCGTATTTGTG (site TTAGCTCCTCA)”, the “recombinant UMI read abundance (log10)” value was determined as 0.00713.

Take “TTAGCTACATGGACCGGTTTTCCCGGTAATCCGTATTTGTG (site TTAGCTGCTCA)”: the “recombinant UMI read abundance (log10)” value was 0.0109.

“TTAGCTACATGGACCGGTTTTCCCGGTAATCCGTATTTGTG (site TTAGCTTCTCA)”: the “recombinant UMI read abundance (log10)” value was 0.0149.

For the sequence “TTAGCTGCATGGACCGGTTTTCCCGGTAATCCGTATTTGTC (site TTAGCTGCTAA)”, the “recombinant UMI read abundance (log10)” value is 0.00712.

Take “TTAGCTGCATGGACCGGTTTTCCCGGTAATCCGTATTTGTC (site TTAGCTGCTCA)”: the “recombinant UMI read abundance (log10)” value was determined as 0.00796.

With “TTAGCTGCATGGACCGGTTTTCCCGGTAATCCGTATTTGTC (site TTAGCTGCTGA)”, the “recombinant UMI read abundance (log10)” value came out at 2.26.

With “TTAGCTGCATGGACCGGTTTTCCCGGTAATCCGTATTTGTC (site TTAGCTGCTTA)”, the “recombinant UMI read abundance (log10)” value was determined as 0.15.

For “TTAGTATCATGGACCGGTTTTCCCGGTAATCCGTATTTGAC (site ATAGTATCTGT)”, the “recombinant UMI read abundance (log10)” value worked out at 2.12.

With “TTAGTATCATGGACCGGTTTTCCCGGTAATCCGTATTTGAC (site CTAGTATCTGT)”, the “recombinant UMI read abundance (log10)” value came to 2.18.
